Laboratory results taken from patent US20240165089A1, “METHOD FOR TREATING MYOPIA WITH VINPOCETINE” (EYE HOSPITAL, WENZHOU MEDICAL UNIVERSITY, priority 2021, published 2024).

Tested on: choroid of FDM guinea pigs
Experiment: choroidal thickness and blood flow by OCTA, FDM group
Type: in vivo, guinea pig
Procedure: The choroidal blood flow parameters and choroidal thickness were measured for the animals in the above FDM group after 1 week of continuous administration and at the end of the 2 week-administration experiment and for the animals in the LIM group at the end of the 7 day-administration experiment. Choroidal blood flow parameters and thickness were measured using a modified commercial OCTA (Spectralis HRA+OCT, OCTA, Heidelberg, Germany) which is more suitable for animal eyeballs. Before the measurement, the guinea pigs were fully anesthetized (a mixture of ketamine hydrochloride 60 mg/kg and xylazine hydrochloride 9 mg/kg, intraperitoneally injected), and then the guinea pig OCTA images were obtained, and the measurement results were quantified through a self-written program (MatLab R2017a, MathWorks). Real-time quantitative detection of choroidal blood flow and thickness in guinea pigs was achieved (Sen Zhang, Invest Ophthalmol Vis Sci. 2019 Jul. 1; 60(8):3074-3083).
Vinpocetine is known to improve blood circulation. The inventors used the method of example 1 to detect changes of indicator signals of choroidal thickness ChT and choroidal blood flow ChBP of FDM (1 week and 2 weeks of administration) and LIM (1 week of administration) at different time points during the administration cycle.

## CCOC(=O)C1=C[C@]2(CC)CCCN3CCc4c(n1c1ccccc41)[C@@H]32 [vinpocetine]
1 and 2 weeks, vs solvent injection group, not statistically significant
  choroidal thickness ChT: only slightly increased
1 and 2 weeks, vs solvent injection group, p=0.285
  choroidal blood perfusion ChBP: only slightly increased
Vinpocetine 0.1 μM, 2 weeks
  effect on choroidal vasodilation compared with atropine: not as good as atropine
Vinpocetine 1 μM, 1 week
  improvement of choroidal blood flow among vinpocetine concentrations: least effective at improving choroidal blood flow
